{"source": "patent US7098243B2", "about": "“Bicyclic carbohydrates as antiviral bioactives for the treatment of infections caused by the alphaherpesvirinae HSV-1 and HSV-2” (Kemin Pharma Europe B.V.B.A., priority 2003, dated 2006)", "key": {"[1]": {"system": "Candida albicans ATCC 24433", "test": "Antifungal microdilution screening (Bioscreen C), C. albicans", "format": "cell-based", "details": "24 hours at 35° C., RPMI 1640"}, "[2]": {"system": "Staphylococcus aureus ATCC29213", "test": "Antibacterial microdilution screening (Bioscreen C), S. aureus", "format": "cell-based", "details": "16 hours at 35° C., Mueller-Hinton broth"}, "[3]": {"system": "Cryptococcus neoformans ATCC 90112", "test": "Antifungal microdilution screening (Bioscreen C), C. neoformans", "format": "cell-based", "details": "48 hours at 35° C., RPMI 1640"}, "Vero cells": {"system": "Vero cells", "details": "West Nile screening, reduction of cell viability by 50%"}, "[4]": {"system": "herpes simplex virus type 1 (HSV-1)", "test": "Cytopathic effect inhibition assay (CPE) against HSV-1 in HFF cells", "details": "for EC50: Human alphaherpesvirus 1, HFF"}, "E. coli ATCC 25922": {"system": "E. coli ATCC 25922", "test": "Antibacterial microdilution screening (Bioscreen C), E. coli", "format": "cell-based", "details": "16 hours at 35° C., Mueller-Hinton broth"}, "[5]": {"system": "varicella zoster virus (VZV)", "test": "Inhibition of viral-induced cytopathicity, VZV in HFF cells", "format": "cell-based"}, "[6]": {"system": "herpes simplex virus type 2 (HSV-2)", "test": "Cytopathic effect inhibition assay (CPE) against HSV-2 in HFF cells", "details": "for EC50: Human alphaherpesvirus 2, HFF"}, "[7]": {"system": "Aspergillus fumigatus ATCC 2895", "test": "Antifungal microdilution screening (Bioscreen C), A. fumigatus", "format": "cell-based", "details": "3 days at 30° C., RPMI 1640"}, "West Nile virus": {"system": "West Nile virus", "test": "Inhibition of viral-induced cytopathicity, West Nile virus in Vero cells", "format": "cell-based"}, "[8]": {"system": "human cytomegalo virus (HCMV)", "test": "Inhibition of viral-induced cytopathicity, HCMV in HFF cells", "format": "cell-based"}, "[9]": {"system": "Clostridium perfringens ATCC 13124", "format": "cell-based", "details": "16 hours at 35° C., Mueller-Hinton broth"}, "HFF cells": {"system": "HFF cells", "test": "Toxicity (reduction of cell viability) in the HSV, HCMV and VZV screenings", "format": "cell-based", "details": "reduction of cell viability by 50%"}, "[10]": {"system": "Trichophyton mentagrophytes ATCC 9533", "test": "Antifungal microdilution screening (Bioscreen C), T. mentagrophytes", "format": "cell-based", "details": "5 days at 30° C., RPMI 1640"}, "[11]": {"system": "Pseudomonas aeruginosa ATCC 27853", "test": "Antibacterial microdilution screening (Bioscreen C), P. aeruginosa", "format": "cell-based", "details": "16 hours at 35° C., Mueller-Hinton broth"}, "[12]": {"details": "viral-induced cytopathicity in HFF cell cultures"}, "[13]": {"details": "compounds related to Compound A1 (Table 4)"}}, "note": "“Also recorded” adds a separate entry of the source. Where two headings read alike, the source gives them in different places."}
{"smiles": "CCO[C@@H]1[C@@H](OCC)[C@H](Cc2ccccc2)O[C@@H]2CO[C@@H](c3ccc(Cl)cc3)O[C@@H]12", "note": "[Compound A1]", "values": [{"measurement": "MIC C. albicans ATCC 24433", "setting": "[1]", "value": ">25", "unit": "µg/mL"}, {"measurement": "MIC S. aureus ATCC 29213", "setting": "[2]", "value": ">25", "unit": "µg/mL"}, {"measurement": "MIC C. neoformans ATCC 90112", "setting": "[3]", "value": ">25", "unit": "µg/mL"}, {"measurement": "Compound A1 CC50", "setting": "Vero cells", "value": 50, "unit": "µg/mL"}, {"measurement": "Compound A1 S.I. (CC50/EC50)", "setting": "[4]; HSV-1", "value": ">33.3"}, {"measurement": "Compound A1 EC50", "setting": "[4]; HSV-1, viral-induced cytopathicity in HFF cell cultures", "value": 3, "unit": "µg/mL"}, {"measurement": "Activity against HSV-1 (in words)", "setting": "[4]; anti-viral screening", "value": "strong activity"}, {"measurement": "MIC E. coli ATCC 25922", "setting": "E. coli ATCC 25922", "value": ">25", "unit": "µg/mL"}, {"measurement": "Compound A1 S.I. (CC50/EC50)", "setting": "[5]", "value": 0}, {"measurement": "Compound A1 EC50", "setting": "[5]; [12]", "value": "> 100", "unit": "µg/mL"}, {"measurement": "Compound A1 S.I. (CC50/EC50)", "setting": "[6]; HSV-2", "value": ">3333"}, {"measurement": "Compound A1 EC50", "setting": "[6]; HSV-2, viral-induced cytopathicity in HFF cell cultures", "value": "< 0.03", "unit": "µg/mL"}, {"measurement": "Activity against HSV-2 (in words)", "setting": "[6]; anti-viral screening", "value": "strong activity; also recorded: superior effect against HSV-2"}, {"measurement": "MIC A. fumigatus ATCC 2895", "setting": "[7]", "value": ">25", "unit": "µg/mL"}, {"measurement": "Compound A1 S.I. (CC50/EC50)", "setting": "West Nile virus; West Nile", "value": 0}, {"measurement": "Compound A1 EC50", "setting": "West Nile virus; West Nile virus, Vero cells", "value": "> 50", "unit": "µg/mL"}, {"measurement": "Compound A1 S.I. (CC50/EC50)", "setting": "[8]", "value": "<3.5"}, {"measurement": "Compound A1 EC50", "setting": "[8]; [12]", "value": "> 20", "unit": "µg/mL"}, {"measurement": "MIC C. perfringens ATCC 13124", "setting": "[9]", "value": ">25", "unit": "µg/mL"}, {"measurement": "Compound A1 CC50", "setting": "HFF cells; HCMV screening", "value": 71.0, "unit": "µg/mL"}, {"measurement": "Compound A1 CC50", "setting": "HFF cells; HSV-1 screening", "value": ">100", "unit": "µg/mL"}, {"measurement": "Compound A1 CC50", "setting": "HFF cells; HSV-2 screening", "value": ">100", "unit": "µg/mL"}, {"measurement": "Compound A1 CC50", "setting": "HFF cells; VZV screening", "value": ">100", "unit": "µg/mL"}, {"measurement": "MIC T. mentagrophytes ATCC 9533", "setting": "[10]", "value": ">25", "unit": "µg/mL"}, {"measurement": "MIC P. aeruginosa ATCC 27853", "setting": "[11]", "value": ">25", "unit": "µg/mL"}]}
{"smiles": "Nc1nc(O)c2ncn(COC(CO)CO)c2n1", "note": "[GCV, ganciclovir, reference compound]", "values": [{"measurement": "EC50", "setting": "[8]; Human betaherpesvirus 5, HFF, reference product, read-out: GCV EC50", "value": 0.8, "unit": "µg/mL"}]}
{"smiles": "CO[C@@H]1[C@@H](OC)[C@H](Cc2ccccc2)O[C@@H]2CO[C@@H](c3ccc(Cl)cc3)O[C@@H]12", "values": [{"measurement": "EC50", "setting": "[4]; read-out: EC50 HSV-1", "value": "> 16", "unit": "µg/mL"}, {"measurement": "EC50", "setting": "[6]; read-out: EC50 HSV-2", "value": "> 16", "unit": "µg/mL"}]}
{"smiles": "C=CCO[C@@H]1[C@@H](OCC=C)[C@H](Cc2ccccc2)O[C@@H]2CO[C@@H](c3ccc(Cl)cc3)O[C@@H]12", "values": [{"measurement": "EC50 HSV-1", "setting": "[4]; [13]", "value": ">16", "unit": "µg/mL"}, {"measurement": "EC50 HSV-2", "setting": "[6]; [13]", "value": ">16", "unit": "µg/mL"}]}
{"smiles": "CCO[C@@H]1[C@@H](OCC)[C@H](Cc2ccccc2)O[C@@H]2CO[C@@H](c3ccccc3)O[C@@H]12", "values": [{"measurement": "EC50", "setting": "[4]; read-out: EC50 HSV-1", "value": "> 80", "unit": "µg/mL"}, {"measurement": "EC50", "setting": "[6]; read-out: EC50 HSV-2", "value": "> 80", "unit": "µg/mL"}]}
{"smiles": "Nc1nc2c(ncn2COCCO)c(=O)[nH]1", "note": "[ACV, Acyclovir, reference compound]", "values": [{"measurement": "EC50", "setting": "[4]; read-out: ACV EC50", "value": 1.2, "unit": "µg/mL"}, {"measurement": "EC50", "setting": "[6]; read-out: ACV EC50", "value": 0.4, "unit": "µg/mL"}]}
